Several values for one entry are separate records, joined by “and”; a condition that tells them apart may be missing. Equal values may be shown once. Marks after values point to notes of the source that are not given here.
Legend:
Format in all cases: cell-based
human skin fibroblasts [1] = experiment: [3H]phenylalanine incorporation (index of protein synthesis) in human skin fibroblasts; settings: 10^-4 M, 48 h
Procedure: FIGS. 2A and 2B are histograms showing concentration responses of adenosine-stimulated protein synthesis in human skin fibroblasts from a young (FIG. 2A) and aged (FIG. 2B) donor. Cells were grown to 75% confluence. Medium was then replaced with serum-free medium with or without adenosine. After 48 hours, [^3H]phenylalanine incorporation was determined as described. Results are expressed as %[^3H]phenylalanine incorporation compared to control cultures without adenosine and are means ±SEM for 6-25 experiments. […] Incorporation of [^3H]phenylalanine was measured as an index of protein synthesis. Human skin fibroblasts were seeded into 24-well culture plates in MEM containing 10% FBS. When cells had grown to approximately 75% confluence the culture medium was replaced with serum-free MEM with or without adenosine. After 48 hours, 2 μCi/ml [^3H]phenylalanine was added to the cultures. Unlabeled phenylalanine (0.36 mM) was also added to equalize concentrations of intracellular and extracellular phenylalanine. […] The radioactivity of this fraction was determined by standard liquid scintillation spectrometric techniques. Incorporation of [^3H] phenylalanine was expressed as cpm of ^3H per culture well and data in each experiment were derived from six identically treated wells.

[2] = tested on: human lung fibroblasts (IMR-90); experiment: [3H]thymidine incorporation in human lung fibroblasts (IMR-90); settings: IMR-90 lung fibroblasts
Procedure: FIGS. 1A and 1B are histograms showing the effect of adenosine on [^3H]thymidine incorporation in cultures of normal human skin (FIG. 1A) and lung fibroblasts (FIG. 1B). After incubation in serum-free medium for 24 hours, cells were exposed to 10^−4 M adenosine for 18 hours. Medium was replaced with serum-free medium without adenosine, and [^3H]thymidine was added. Results are expressed as percent [^3H]thymidine incorporation compared to control cultures without adenosine and are means ±SEM for 4-5 experiments.
(§1) Human skin fibroblasts and human lung fibroblasts were supplied by the N.I.A. Aging Culture Repository Center (Camden, N.J.). For skin fibroblasts, primary cultures had been initiated from explants obtained from a 3 mm punch biopsy of the mesial aspect of the upper left arm. Human lung fibroblasts (IMR-90) were established from a […] normal […] fetus.
Cells were grown in Eagle's minimal essential medium (MEM) supplemented with 10% fetal bovine serum (FBS), 100 U/ml penicillin and […] streptomycin in a 37° C., 5% CO2/95% air environment. […]
As an index of DNA synthesis incorporation of [^3H]thymidine was measured as described in Ethier et al., Am. […] The radioactivity of this fraction was determined by standard liquid scintillation spectrometric techniques.
Incorporation of [^3H] thymidine was expressed as counts per minute (cpm) of ^3H per culture. […]

human skin fibroblasts [3] = experiment: Determination of cell size by forward light scatter (FACS); settings: for % increase (cell size) / Relative Size (FLS): adenosine 10^-4 M, 18 h; for increase of cell size: 10^-4 M
Procedure: Human fibroblasts in MEM 10% FBS were seeded into 25 cm^2 culture flasks at a density of 1×10^4 cells/cm^2. When the cells had grown to approximately 80% confluence the culture medium was removed and the cells were incubated in serum-free MEM for 24 hours. Adenosine or vehicle (MEM) was added for 18 hours and cells were then washed twice with cold (4° C.) HBSS. Cells were removed with 0.25% trypsin in calcium-and magnesium-free MEM and diluted in cold (4° C.) HBSS for measurement of relative cell size with a fluorescence-activated cell sorter (FACS; Becton Dickinson Vantage). Cell size was determined by forward light scatter on a minimum of 1×10^4 cells per experiment. The effect of adenosine on cell size was determined on human skin fibroblasts from young and aged donors by measuring forward light scatter in a FACS analyzer. Cultures made quiescent by serum removal were exposed to adenosine for 18 hours, removed by trypsinization, and diluted in 4° C. HBSS. A minimum of 1×10^4 cells were measured for each experiment. Values are mean ±SEM for relative cell size determined by forward light scatter (FLS) in a fluorescence-activated cell sorter, and n=number of cells measured.

human skin fibroblasts [4] = experiment: [3H]thymidine incorporation (index of DNA synthesis) in human skin fibroblasts
Procedure: as §1
Cells were grown in Eagle's minimal essential medium (MEM) supplemented with 10% fetal bovine serum (FBS), 100 U/ml penicillin and […] streptomycin in a 37° C., 5% CO2/95% air environment. After reaching confluence, cells were subcultivated with 0.25% trypsin in MEM with no added Ca^2+ or Mg^2+.
As an index of DNA synthesis incorporation of [^3H]thymidine was measured as described in Ethier et al., Am. J. Physiol. 272:H1470-79 (1997). Confluent monolayers of human skin fibroblasts in MEM plus 10% FBS were seeded into 16 mm diameter culture wells (24-well plates) at a density of 1×10^4 cells/cm^2. Cells were grown at 37° C. under standard culture conditions (5% CO2-95% air) until they were approximately 75% confluent. Medium was then removed and the cells were made “serum-free” by incubation in MEM with no FBS for 24 hours. Adenosine or vehicle (MEM) was added for an additional 18 hours. This medium was then replaced with fresh MEM, and the cells were pulsed with […] [^3H] thymidine (6.7 Ci/mmol). After a 2 hour incubation period, the medium was discarded and the cells were rinsed twice with cold (4° C.) Hank's balanced salt solution (HBSS) and incubated for 5 minutes with 0.5 ml cold 10% (w/v) trichloroacetic acid (TCA). The wells were then rinsed with 8% TCA and the TCA-insoluble material was solubilized with 0.5 ml of a solution of 0.2M NaOH and 0.2% sodium […] sulfate (SDS). The radioactivity of this fraction was determined by standard liquid scintillation spectrometric techniques.
Incorporation of [^3H] thymidine was expressed as counts per minute (cpm) of ^3H per culture. Data in each experiment was derived from 4 identically treated wells.

## Nc1ncnc2c1ncn2[C@@H]1O[C@H](CO)[C@@H](O)[C@H]1O [adenosine]
Human skin fibroblasts [1]; skin fibroblasts from person (AG073060A), n=25
  increase of protein synthesis ([3H]phenylalanine incorporation): 13±4%
Human skin fibroblasts [1]; skin fibroblasts from person three (AG11730), n=17
  increase of protein synthesis ([3H]phenylalanine incorporation): 13±6%
[2]; adenosine 10^-4 M (FIG. 1B)
  effect on [3H]thymidine incorporation: no effect
[2]; adenosine 10^-7 M to 10^-3 M (data not shown)
  stimulation of [3H]thymidine incorporation: failed to stimulate
Human skin fibroblasts [3]; aged donor, experiment 1
  % increase (cell size): 2.7* %
  Relative Size (FLS): 342 ± 0.75
Human skin fibroblasts [3]; aged donor, experiment 2
  % increase (cell size): 4.3* %
  Relative Size (FLS): 337 ± 0.96
Human skin fibroblasts [3]; aged donor, experiment 3
  % increase (cell size): 4.9* %
  Relative Size (FLS): 321 ± 0.81
Human skin fibroblasts [3]; skin fibroblasts from person (AG073060A), two of three experiments
  increase of cell size: 1.8% and 2.2%
Human skin fibroblasts [3]; skin fibroblasts from person three (AG11730), 3 of 3 experiments
  increase of cell size: 2.7-4.9%
Human skin fibroblasts [3]; young donor, experiment 1
  % increase (cell size): 0.4%
  Relative Size (FLS): 526 ± 0.55
Human skin fibroblasts [3]; young donor, experiment 2
  % increase (cell size): 2.2* %
  Relative Size (FLS): 326 ± 1.16
Human skin fibroblasts [3]; young donor, experiment 3
  % increase (cell size): 1.8* %
  Relative Size (FLS): 348 ± 0.95
Human skin fibroblasts [4]; human fibroblasts AG607720B made quiescent by serum removal, 10^-4 M adenosine, five studies (FIG. 1A)
  increase of [3H]thymidine incorporation: 43±9%
Human skin fibroblasts [4]; skin fibroblasts from person (AG07306A), 10^-4 M, n=6
  peak stimulation of [3H]thymidine incorporation: 93±20%
Human skin fibroblasts [4]; skin fibroblasts from person one, 10^-4 M
  increase of [3H]thymidine incorporation: 53±31%
Human skin fibroblasts [4]; skin fibroblasts from person three, 10^-4 M
  increase of [3H]thymidine incorporation: 54±22%
Human skin fibroblasts [4]; skin fibroblasts from person two, 10^-4 M
  effect on DNA synthesis ([3H]thymidine incorporation): no effect
